From the NIST ThermoML archive (doi:10.1016/j.tca.2018.07.016)
“And” between values parts separate entries of the source, which are not always exact repeats. Equal values may be shown once.

Settings: Liquid, Transpiration method

C1CCCNCCC1 [heptamethyleneimine]
Settings | vapor or sublimation pressure
276.1 K | 0.08722 kPa
279.6 K | 0.1144 kPa
281.3 K | 0.1316 kPa
285.2 K | 0.1719 kPa
288.3 K | 0.22 kPa
292.1 K | 0.277 kPa
292.3 K | 0.2658 kPa
295.2 K | 0.3338 kPa
299 K | 0.4239 kPa
299.2 K | 0.4202 kPa
302.1 K | 0.5212 kPa
306.1 K | 0.6926 kPa
309 K | 0.8283 kPa and 0.7923 kPa
313 K | 1.016 kPa
317 K | 1.311 kPa
319.8 K | 1.44 kPa
322 K | 1.585 kPa
324.9 K | 1.97 kPa

C1CCCNCC1 [azacycloheptane]
Settings | vapor or sublimation pressure [kPa]
275.3 K | 0.2584
278.3 K | 0.3225
281 K | 0.3957
284.2 K | 0.4858
287.3 K | 0.604
290.2 K | 0.7427
293.2 K | 0.8989
296.2 K | 1.051
302.2 K | 1.525
305.2 K | 1.824
308.1 K | 2.177
311.2 K | 2.409
314.2 K | 3.025
317.2 K | 3.485
321.2 K | 4.037

C1CCCCNCCC1 [octamethylenimine]
Settings | vapor or sublimation pressure [kPa]
274.6 K | 0.01266
278.3 K | 0.01754
283.3 K | 0.02575
288.3 K | 0.03757
293.2 K | 0.05489
298.1 K | 0.07468
304.1 K | 0.1162
309.1 K | 0.1671
313.3 K | 0.2073
318.1 K | 0.2813
323.4 K | 0.3868
